In PubChem BioAssay AID328 (DTP/NCI, 2004):
Several values for one entry are separate records, joined by “and”; a condition that tells them apart may be missing. Equal values may be shown once. Toxic doses and inconclusive results are not listed.

Tested on: BDF1 mice, P388 leukemia ip, median survival T/C
Assay: NCI In Vivo Anticancer Drug Screen. Data for tumor model P388 Leukemia (intraperitoneal) in B6D2F1 (BDF1) mice
Details: endpoint: median survival time, higher = longer survival
In short: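 Reported as T/C, where T is the survival measurement in dosed animals and C the same measurement in vehicle controls.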

[1] = dose: 12.5 mg/kg/injection, schedule: Q01DX009 (ip), vehicle: water
[2] = dose: 25.0 mg/kg/injection, schedule: Q01DX009 (ip), vehicle: Klucel (hydroxypropylcellulose) (HPC)
[3] = dose: 25.0 mg/kg/injection, schedule: Q04DX003 (ip), vehicle: saline
[4] = dose: 50.0 mg/kg/injection, schedule: Q01DX009 (ip), vehicle: Klucel (hydroxypropylcellulose) (HPC)
[5] = dose: 50.0 mg/kg/injection, schedule: Q04DX003 (ip), vehicle: saline
[6] = dose: 100.0 mg/kg/injection, schedule: Q04DX003 (ip), vehicle: saline
[7] = dose: 200.0 mg/kg/injection, schedule: Q01DX009 (ip), vehicle: Klucel (hydroxypropylcellulose) (HPC)
[8] = dose: 100.0 mg/kg/injection, schedule: Q04DX003 (ip), vehicle: Klucel (hydroxypropylcellulose) (HPC)
[9] = dose: 200.0 mg/kg/injection, schedule: Q04DX003 (ip), vehicle: Klucel (hydroxypropylcellulose) (HPC)
[10] = dose: 400.0 mg/kg/injection, schedule: Q04DX003 (ip), vehicle: Klucel (hydroxypropylcellulose) (HPC)
[11] = dose: 50.0 mg/kg/injection, schedule: Q04DX003 (ip), vehicle: saline with Tween-80
[12] = dose: 100.0 mg/kg/injection, schedule: Q04DX003 (ip), vehicle: saline with Tween-80
[13] = dose: 200.0 mg/kg/injection, schedule: Q04DX003 (ip), vehicle: saline with Tween-80
[14] = dose: 100.0 mg/kg/injection, schedule: Q01DX009 (ip), vehicle: saline with Tween-80
[15] = dose: 50.0 mg/kg/injection, schedule: Q01DX009 (ip), vehicle: saline with Tween-80
[16] = dose: 100.0 mg/kg/injection, schedule: Q01DX009 (ip), vehicle: water
[17] = dose: 100.0 mg/kg/injection, schedule: Q04DX003 (ip), vehicle: water
[18] = dose: 200.0 mg/kg/injection, schedule: Q01DX009 (ip), vehicle: water
[19] = dose: 200.0 mg/kg/injection, schedule: Q04DX003 (ip), vehicle: water
[20] = dose: 400.0 mg/kg/injection, schedule: Q04DX003 (ip), vehicle: water
[21] = dose: 100.0 mg/kg/injection, schedule: Q01DX009 (ip), vehicle: Klucel (hydroxypropylcellulose) (HPC)
[22] = dose: 25.0 mg/kg/injection, schedule: Q01DX009 (ip), vehicle: saline with Tween-80

SMILES: CCCCCCCCCCCC1=NC(CO)(CO)CO1
- T/C (dose: 100.0 mg/kg/injection, schedule: Q01DX001 (ip), vehicle: saline with Tween-80): 100 % of control
- T/C (dose: 200.0 mg/kg/injection, schedule: Q01DX001 (ip), vehicle: saline with Tween-80): 104 % of control
- T/C (dose: 400.0 mg/kg/injection, schedule: Q01DX001 (ip), vehicle: saline with Tween-80): 100 % of control

SMILES: CCN(CC)Cc1c(C)[nH]c2ccc(N(C)C)cc2c1=O
- T/C (dose: 1.56 mg/kg/injection, schedule: Q01DX009 (ip), vehicle: water): 86 % of control and 110 % of control
- T/C (dose: 3.12 mg/kg/injection, schedule: Q01DX009 (ip), vehicle: water): 89 % of control and 100 % of control
- T/C (dose: 6.25 mg/kg/injection, schedule: Q01DX009 (ip), vehicle: water): 89 % of control
- T/C (dose: 12.5 mg/kg/injection, schedule: Q01DX009 (ip), vehicle: Klucel (hydroxypropylcellulose) (HPC)): 99 % of control
- T/C [1]: 120 % of control
- T/C [2]: 108 % of control
- T/C [3]: 111 % of control
- T/C [4]: 99 % of control
- T/C [5]: 112 % of control
- T/C [6]: 104 % of control
- T/C [7]: 106 % of control

SMILES: COc1ccc(C[C@H](N)C(=O)NC2C(CO)OC(n3cnc4c(N(C)C)ncnc43)C2O)cc1 (some centres undefined)
- T/C [3]: 98 % of control
- T/C [5]: 109 % of control
- T/C (dose: 100.0 mg/kg/injection, schedule: Q01DX009 (ip), vehicle: saline): 100 % of control
- T/C [6]: 105 % of control

SMILES: CCC(c1ccc2cc(OC)ccc2c1)C(CC(=O)O)C(=O)OC (centres undefined)
- T/C [8]: 87 % of control
- T/C [9]: 91 % of control
- T/C [10]: 91 % of control

SMILES: Cc1ccc(NC(=O)C2CCC(C)(C(=O)O)C2(C)C)cc1 (centres undefined)
- T/C [11]: 109 % of control
- T/C [12]: 90 % of control
- T/C [13]: 104 % of control

SMILES: O=C(C(=O)c1ccc(Br)cc1)c1ccc(Br)cc1
- T/C [14]: 96 % of control
- T/C (dose: 200.0 mg/kg/injection, schedule: Q01DX009 (ip), vehicle: saline with Tween-80): 98 % of control
- T/C (dose: 400.0 mg/kg/injection, schedule: Q01DX009 (ip), vehicle: saline with Tween-80): 98 % of control

SMILES: NC(C(=O)O)C1=CCC=CC1 (centres undefined)
- T/C [15]: 98 % of control
- T/C [14]: 99 % of control

SMILES: COc1ccc(C2C=C(c3ccc4c(c3)OCO4)Oc3c2c(=O)oc2ccccc32)cc1OC (centres undefined)
- T/C [1]: 99 % of control
- T/C (dose: 25.0 mg/kg/injection, schedule: Q01DX009 (ip), vehicle: water): 94 % of control
- T/C (dose: 25.0 mg/kg/injection, schedule: Q04DX003 (ip), vehicle: water): 94 % of control
- T/C (dose: 50.0 mg/kg/injection, schedule: Q01DX009 (ip), vehicle: water): 94 % of control
- T/C (dose: 50.0 mg/kg/injection, schedule: Q04DX003 (ip), vehicle: water): 101 % of control
- T/C [16]: 99 % of control
- T/C [17]: 97 % of control
- T/C [18]: 94 % of control
- T/C [19]: 110 % of control
- T/C [20]: 106 % of control

SMILES: c1ccc(CSSCc2ccccc2)cc1
- T/C (dose: 75.0 mg/kg/injection, schedule: Q01DX009 (ip), vehicle: Klucel (hydroxypropylcellulose) (HPC)): 104 % of control
- T/C [21]: 90 % of control
- T/C [8]: 100 % of control
- T/C (dose: 150.0 mg/kg/injection, schedule: Q01DX009 (ip), vehicle: Klucel (hydroxypropylcellulose) (HPC)): 100 % of control
- T/C [7]: 86 % of control
- T/C [9]: 95 % of control
- T/C (dose: 300.0 mg/kg/injection, schedule: Q01DX009 (ip), vehicle: Klucel (hydroxypropylcellulose) (HPC)): 90 % of control
- T/C [10]: 95 % of control

SMILES: CC(O)(C(N)=O)c1cc(Cl)ccc1Cl (centres undefined)
- T/C [16]: 110 % of control
- T/C [17]: 109 % of control
- T/C [18]: 110 % of control
- T/C [19]: 100 % of control
- T/C (dose: 400.0 mg/kg/injection, schedule: Q01DX009 (ip), vehicle: water): 90 % of control
- T/C [20]: 95 % of control

SMILES: NNC(=O)c1ccc(Cl)c(Cl)c1
- T/C (dose: 6.25 mg/kg/injection, schedule: Q01DX009 (ip), vehicle: saline with Tween-80): 113 % of control
- T/C (dose: 12.5 mg/kg/injection, schedule: Q01DX009 (ip), vehicle: saline with Tween-80): 86 % of control
- T/C (dose: 12.5 mg/kg/injection, schedule: Q04DX003 (ip), vehicle: saline with Tween-80): 98 % of control
- T/C [22]: 89 % of control
- T/C (dose: 25.0 mg/kg/injection, schedule: Q04DX003 (ip), vehicle: saline with Tween-80): 107 % of control
- T/C [15]: 104 % of control
- T/C [11]: 107 % of control
- T/C (dose: 100.0 mg/kg/injection, schedule: Q01DX001 (ip), vehicle: saline sonified): 91 % of control
- T/C [14]: 97 % of control
- T/C [12]: 107 % of control
- T/C (dose: 200.0 mg/kg/injection, schedule: Q01DX001 (ip), vehicle: saline sonified): 100 % of control
- T/C [13]: 107 % of control

SMILES: NS(=O)(=O)c1ccc(N=Nc2nc3ncnc(SCc4cccs4)c3[nH]2)cc1
- T/C (dose: 100.0 mg/kg/injection, schedule: Q01DX009 (ip), vehicle: other): 95 % of control
- T/C [6]: 104 % of control
- T/C (dose: 200.0 mg/kg/injection, schedule: Q01DX009 (ip), vehicle: other): 118 % of control
- T/C (dose: 200.0 mg/kg/injection, schedule: Q04DX003 (ip), vehicle: saline): 104 % of control
- T/C (dose: 400.0 mg/kg/injection, schedule: Q01DX009 (ip), vehicle: other): 86 % of control
- T/C (dose: 400.0 mg/kg/injection, schedule: Q04DX003 (ip), vehicle: saline): 108 % of control

SMILES: CCSc1nc(C(OC)OC)c(Cc2ccccc2)c(=O)[nH]1
- T/C [8]: 90 % of control
- T/C [9]: 90 % of control
- T/C [10]: 90 % of control

SMILES: CC(C)CCNc1ncnc2[nH]ncc12
- T/C (dose: 5.5 mg/kg/injection, schedule: Q01DX009 (ip), vehicle: Klucel (hydroxypropylcellulose) (HPC)): 95 % of control
- T/C (dose: 8.2 mg/kg/injection, schedule: Q01DX009 (ip), vehicle: Klucel (hydroxypropylcellulose) (HPC)): 100 % of control
- T/C (dose: 18.75 mg/kg/injection, schedule: Q04DX003 (ip), vehicle: Klucel (hydroxypropylcellulose) (HPC)): 86 % of control
- T/C [2]: 90 % of control
- T/C [22]: 90 % of control
- T/C (dose: 37.5 mg/kg/injection, schedule: Q04DX003 (ip), vehicle: Klucel (hydroxypropylcellulose) (HPC)): 104 % of control
- T/C [15]: 90 % of control
- T/C (dose: 75.0 mg/kg/injection, schedule: Q04DX003 (ip), vehicle: Klucel (hydroxypropylcellulose) (HPC)): 86 % of control

SMILES: CNC(=S)NNc1ccccc1
- T/C [4]: 96 % of control
- T/C [21]: 91 % of control
- T/C [8]: 90 % of control
- T/C [7]: 95 % of control
- T/C [9]: 95 % of control
- T/C (dose: 400.0 mg/kg/injection, schedule: Q01DX009 (ip), vehicle: Klucel (hydroxypropylcellulose) (HPC)): 95 % of control
- T/C [10]: 100 % of control

SMILES: CCCC(=O)NC1=C(N2CC2)C(=O)C(NC(=O)CCC)=C(N2CC2)C1=O
- T/C (dose: 0.44 mg/kg/injection, schedule: Q04DX003 (ip), vehicle: saline with Tween-80): 104 % of control
- T/C (dose: 0.66 mg/kg/injection, schedule: Q04DX003 (ip), vehicle: saline with Tween-80): 109 % of control
- T/C (dose: 1.0 mg/kg/injection, schedule: Q01DX009 (ip), vehicle: saline): 213 % of control
- T/C (dose: 1.0 mg/kg/injection, schedule: Q04DX003 (ip), vehicle: saline with Tween-80): 122 % of control
- T/C (dose: 1.5 mg/kg/injection, schedule: Q04DX003 (ip), vehicle: saline with Tween-80): 100 % of control
- T/C (dose: 2.0 mg/kg/injection, schedule: Q01DX009 (ip), vehicle: saline): 200 % of control
- T/C (dose: 2.5 mg/kg/injection, schedule: Q04DX003 (ip), vehicle: saline with Tween-80): 150 % of control
- T/C (dose: 4.0 mg/kg/injection, schedule: Q01DX009 (ip), vehicle: saline): 285 % of control
- T/C (dose: 5.0 mg/kg/injection, schedule: Q04DX003 (ip), vehicle: saline with Tween-80): 204 % of control
- T/C (dose: 10.0 mg/kg/injection, schedule: Q04DX003 (ip), vehicle: saline with Tween-80): 250 % of control
